{"source": "patent US6376517B1", "about": "“Pipecolic acid derivatives for vision and memory disorders” (GPI NIL Holdings, Inc., priority 1998, dated 2002)", "key": {"[1]": {"test_system": "retinal ganglion cell axons", "assay": "Protection of retinal ganglion cell axons from degeneration following optic nerve transection (Table E)", "format": "in vivo, rat", "settings": "14 days after optic nerve transection; ± SEM", "description": "Efficacy of representative compounds from different immunophilin ligand series in protecting retinal ganglion cell axons from degeneration following optic nerve transection is set forth in Table E."}, "[2]": {"assay": "Clearance (Table E comments)", "format": "in vitro ADME"}, "[3]": {"test_system": "retinal ganglion cells, optic nerve axons and myelin", "assay": "Retinal ischemia (intraocular pressure above arterial blood pressure), examined 28 days later", "format": "in vivo, adult rats", "description": "Retinal ganglion cells were retrogradely labeled in adult rats by bilateral injection of fluorogold in their lateral geniculate nuclei. Labeled ganglion cells in the normal rat retina appear as white profiles against the dark background (FIG. 1A). Complete retinal ischemia was produced by infusing normal saline solution into the retinal vitreous cavity of each eye until the intraocular pressure exceeded arterial blood pressure. 28 days after the ischemic episode extensive degeneration of retinal ganglion cell was evidenced by massive reduction in the density of fluorogold labeled cells (FIG. 1B)."}, "retinal ganglion cells": {"test_system": "retinal ganglion cells", "assay": "Optic nerve transection, 28 days treatment, sacrifice at 90 days (Example 13)", "format": "in vivo, Sprague Dawley rats", "settings": "10 mg/kg/day s.c. for 28 days, 90 days after transection", "description": "Transection of the mammalian optic nerve results in a brief period of abortive regeneration, but the majority of axotomized neurons die and the axons from many persisting ganglion cells die back beyond the optic nerve head."}, "[4]": {"test_system": "retinal ganglion cells and optic nerve axons", "assay": "Optic nerve transection vision loss model, 14 or 28 day treatment, sacrifice at 90 days (Example 2, Table A)", "format": "in vivo, Sprague Dawley rats", "settings": "for Proximal optic nerve myclin basic protein Density, % recovery: ± SEM, % areal coverage of optic nerve cross section", "description": "All eyes and optic nerves stumps were removed."}, "[5]": {"assay": "Morris watermaze spatial learning and memory in aged rodents (Example 15)", "format": "in vivo, C57BL/6N-Nia mice", "settings": "aged impaired mice, 10 mg/kg daily, retention testing after 3 weeks of dosing", "description": "The Morris watermaze is widely used for assessing spatial memory formation and retention in experimental animals. The test depends on the animal's ability to utilize spatial visual information in order to locate a submerged escape platform in a water tank. It is important that the tank itself be as devoid of specific visual features as possible—thus, it is always circular in shape, the sides are kept smooth and in uniform dull colors, and the water is rendered opaque with nontoxic watercolor pigment or powdered milk. This is to ensure that the animal navigates only by the use of more distant visual cues, or by the use of intra-maze cues specifically provided by the experimenter. The animals' path, speed, and swim time are tracked with a ceiling camera for later computerized analysis. Over the course of several successive trials, spatial learning can therefore be defined as a drop of distance swum, or time elapsed, from placement in the tank until escape onto the invisible platform. The procedure involved using three-month old (young) and 18-19 month old male C57BL/6N-Nia (aged) mice which habituated to the well known and conventional Morris watermaze during a 4 trials/day, 3-4 day visible platform training phase. […] Swim Distances (cm) were analyzed in a 7×5 ANOVA including Groups and Blocks (1-5) as factors in the analysis, treating Blocks as a repeated measure."}, "FKBP12": {"biological_target": "FKBP12 (Homo sapiens, UniProt P62942)", "sequence (P62942 whole entry, species assumed)": "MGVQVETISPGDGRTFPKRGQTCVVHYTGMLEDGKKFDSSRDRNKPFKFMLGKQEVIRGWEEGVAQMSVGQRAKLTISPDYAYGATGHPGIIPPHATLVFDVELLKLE", "assay": "Ki Test Procedure: inhibition of peptidyl-prolyl isomerase (rotamase) activity, chymotrypsin-coupled assay", "format": "biochemical", "settings": "Table E comments", "method": "The inhibition of the prolyl peptidyl cis-trans isomerase activity of FKBP may be measured as an indicator of this affinity.\nThe cis-trans isomerization of an alanine-proline bond in a model substrate, N-succinyl-Ala-Ala-Pro-Phe-p-nitroanilide, is monitored spectrophotometrically in a chymotrypsin-coupled assay, which releases para-nitroanilide from the trans form of the substrate. The inhibition of this reaction caused by the addition of different concentrations of inhibitor is determined, and the data is analyzed as a change in first-order rate constant as a function of inhibitor concentration to yield the apparent Ki values.\nIn a plastic cuvette are added 950 mL of ice cold assay buffer (25 mM HEPES, pH 7.8, 100 mM NaCl), 10 mL of FKBP (2.5 mM in 10 mM Tris-Cl pH 7.5, 100 mM NaCl, 1 mM dithiothreitol), 25 mL of chymotrypsin (50 mg/ml in 1 mM HCl) and 10 mL of test compound at various concentrations in dimethyl sulfoxide. The reaction is initiated by the addition of 5 mL of substrate (succinyl-Ala-Phe-Pro-Phe-para-nitroanilide, 5 mg/mL in 2.35 mM LiCl in trifluoroethanol).\nThe absorbance at 390 nm versus time is monitored for 90 seconds using a spectrophotometer and the rate constants are determined from the absorbance versus time data files."}}}
{"molecule": "O=C(SCCCc1ccccc1)[C@@H]1CCCN1C(=O)NC12CC3CC(CC(C3)C1)C2", "note": "[B]", "values": [{"measurement": "RT97 + RGC axon density 14 days after On transection (% ON axons rescued)", "setting": "[1]", "result": "100.0% ± 5.2% SEM"}]}
{"molecule": "CCC(C)(C)C(=O)C(=O)N1CCCCC1C(=O)OC(CCc1ccccc1)CCc1ccccc1", "note": "(centres unmarked) [E]", "values": [{"measurement": "Clearance", "setting": "[2]", "result": 41.8, "unit": "µL/min"}]}
{"molecule": "CCC(C)(C)C(=O)C(=O)N1CCC[C@H]1C(=O)OCCCc1cccnc1", "note": "[GPI 1046]", "values": [{"measurement": "protection of retinal ganglion cells (fluorogold labeled) after retinal ischemia", "setting": "[3]; 10 mg/kg s.c. 1 hour prior to ischemia and 10 mg/kg/day for the next four days, 28 days after ischemia", "result": "noticeable protection of a large proportion of the vulnerable ganglion cell population"}, {"measurement": "density of degenerating myelin figures after retinal ischemia", "setting": "[3]; 28 days after 1 hour retinal ischemic episode", "result": "dramatically decreased the density of degenerating myelin figures"}, {"measurement": "protection of optic nerve axons after retinal ischemia", "setting": "[3]; 28 days after 1 hour retinal ischemic episode, toluidine blue staining", "result": "protected the majority of optic nerve axons from degeneration"}, {"measurement": "ganglion cell population spared", "setting": "retinal ganglion cells", "result": 25, "unit": "%"}, {"measurement": "preservation of axons in the proximal stump of the transected nerve", "setting": "retinal ganglion cells; RT97 neurofilament", "result": "preserved the axons of virtually all protected neurons"}, {"measurement": "RGC Counts", "setting": "[4]; 14 days treatment, 10 mg/kg/day sc, 90 days after transection, mean density ± SEM of Fluoro-gold labeled RGC in 400 μm × 400 μm gridfields", "result": "49 ± 5.3"}, {"measurement": "Distal optic nerve shrinkage", "setting": "[4]; 14 days treatment, cross sectional area compared to sham control", "result": 33, "unit": "% shrinkage"}, {"measurement": "Distal optic nerve myclin basic protein Density, loss", "setting": "[4]; 14 days treatment, cross sectional area multiplied by myelin density", "result": 47, "unit": "% loss"}, {"measurement": "Proximal optic nerve myclin basic protein Density, % recovery", "setting": "[4]; 14 days treatment", "result": "1.6 ± 3.0", "unit": "SEM % recovery"}, {"measurement": "density of large, medium and small caliber optic nerve axons", "setting": "[4]; 28 day treatment", "result": "significant increase"}, {"measurement": "ON Axon density", "setting": "[4]; 28 days treatment, 90 days after transection, RT97 labeled axons in 200 μm × 200 μm region, mean ± SEM", "result": "1526 ± 120"}, {"measurement": "Distal optic nerve, less shrinkage", "setting": "[4]; 28 days treatment, cross sectional area compared to sham control", "result": 56, "unit": "% less shrinkage*"}, {"measurement": "Proximal optic nerve myclin basic protein Density, % recovery", "setting": "[4]; 28 days treatment", "result": "70 ± 6.3", "unit": "SEM % recovery"}, {"measurement": "spatial memory performance (Morris watermaze retention, swim distance)", "setting": "[5]", "result": "significantly enhanced spatial memory performance"}]}
{"molecule": "C=C(C(=O)N1CCCC[C@H]1C(=O)O)C(C)(C)CC", "note": "[G]", "values": [{"measurement": "Ki", "setting": "FKBP12", "result": "> 10", "unit": "µM"}, {"measurement": "RT97 + RGC axon density 14 days after On transection (% ON axons rescued)", "setting": "[1]", "result": "34.0% ± 4.8% SEM"}]}
{"molecule": "C=C(C(=O)N1CCCC[C@H]1C(N)=O)C(C)(C)CC", "note": "[H]", "values": [{"measurement": "RT97 + RGC axon density 14 days after On transection (% ON axons rescued)", "setting": "[1]", "result": "30.3% ± 8.0% SEM"}]}
{"molecule": "C=C(C(=O)N1CCC[C@H]1C(=O)O)C(C)(C)CC", "note": "[L]", "values": [{"measurement": "Ki", "setting": "FKBP12", "result": "> 7.74", "unit": "µM"}, {"measurement": "RT97 + RGC axon density 14 days after On transection (% ON axons rescued)", "setting": "[1]", "result": "7.8% ± 3.0% SEM"}, {"measurement": "Clearance", "setting": "[2]", "result": 5.2, "unit": "µL/min"}]}
{"molecule": "CCC(C)(C)C(=O)C(=O)N1CCC[C@H]1C(=O)SCCC(c1ccccc1)c1ccccc1", "note": "[M]", "values": [{"measurement": "RT97 + RGC axon density 14 days after On transection (% ON axons rescued)", "setting": "[1]", "result": "−6.3% ± 3.9% SEM"}]}
